{"source": "paper PMC4856055", "about": "(Journal of medicinal chemistry, 2015)", "key": {"[1]": {"system": "PSMA+ PC3 PIP and PSMA– PC3 flu tumor xenografts", "experiment": "Small animal PET or PET/CT imaging of tumor bearing mice", "format": "in vivo"}, "[2]": {"system": "PSMA+ PC3 PIP and PSMA– PC3 flu xenografts", "format": "in vivo, mice", "conditions": "for PIP:blood ratio / PIP:flu ratio / PIP:kidney ratio / PIP:muscle ratio / biodistribution, PC-3 PIP tumor / biodistribution, PC-3 flu tumor / biodistribution, bladder / biodistribution, blood / biodistribution, bone / biodistribution, fat / biodistribution, heart / biodistribution, kidney / biodistribution, large intestine / biodistribution, liver / biodistribution, lung / biodistribution, muscle / biodistribution, pancreas / biodistribution, small intestine / biodistribution, spleen / biodistribution, stomach: tumor bearing mice"}, "PSMA": {"target": "PSMA (Homo sapiens, UniProt Q04609)", "sequence (Q04609 whole entry)": "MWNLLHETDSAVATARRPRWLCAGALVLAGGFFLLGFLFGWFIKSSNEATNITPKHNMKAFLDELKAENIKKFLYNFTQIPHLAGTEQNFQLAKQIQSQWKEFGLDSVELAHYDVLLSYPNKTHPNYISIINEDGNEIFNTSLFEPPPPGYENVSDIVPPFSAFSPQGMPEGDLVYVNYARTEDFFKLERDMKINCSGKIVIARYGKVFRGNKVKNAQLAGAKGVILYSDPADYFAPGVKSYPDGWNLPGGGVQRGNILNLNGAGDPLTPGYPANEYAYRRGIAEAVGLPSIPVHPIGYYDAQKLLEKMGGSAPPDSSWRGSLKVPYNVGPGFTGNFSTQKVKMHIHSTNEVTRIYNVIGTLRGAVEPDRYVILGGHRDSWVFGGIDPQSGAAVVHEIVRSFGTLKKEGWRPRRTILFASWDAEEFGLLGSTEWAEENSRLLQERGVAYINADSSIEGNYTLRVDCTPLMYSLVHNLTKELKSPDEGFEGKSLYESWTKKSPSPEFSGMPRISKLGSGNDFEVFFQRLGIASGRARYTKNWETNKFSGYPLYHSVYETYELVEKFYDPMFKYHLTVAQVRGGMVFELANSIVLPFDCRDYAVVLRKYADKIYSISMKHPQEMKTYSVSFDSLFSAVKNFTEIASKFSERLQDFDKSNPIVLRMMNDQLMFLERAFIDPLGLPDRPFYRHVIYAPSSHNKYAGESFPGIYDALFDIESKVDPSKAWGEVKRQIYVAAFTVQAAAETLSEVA", "conditions": "ref 13d; cited from earlier work"}}, "note": "Where “and” joins values, the source holds several entries; their conditions need not be identical. Equal entries are not always repeated. Where two headings read alike, the source gives them in different places."}
{"compound": "O=C(O)CCC(OC(=O)NC(CCCCNC(=O)c1ccc(I)cc1[18F])C(=O)O)C(=O)O", "note": "(stereo not drawn) [[^18F]24, 4-iodo-2-[^18F]fluorobenzoyllysine OPA carbamate]", "values": [{"measurement": "PSMA+ PC3 PIP tumor uptake on small animal PET imaging", "setting": "[1]; male SCID mice with PSMA+ PC3 PIP and PSMA– PC3 flu xenografts", "result": "Intense and selective radiotracer uptake"}, {"measurement": "uptake in salivary glands on imaging", "setting": "[1]; mouse, in vivo", "result": "Neither [^18F]23 nor [^18F]24 demonstrated any uptake in salivary glands"}, {"measurement": "PIP:blood ratio", "setting": "[2]; 0.5 h postinjection", "result": 5.6}, {"measurement": "PIP:flu ratio", "setting": "[2]; 0.5 h postinjection", "result": 9.1}, {"measurement": "PIP:kidney ratio", "setting": "[2]; 0.5 h postinjection", "result": 0.5}, {"measurement": "PIP:muscle ratio", "setting": "[2]; 0.5 h postinjection", "result": "47 and 46.6"}, {"measurement": "biodistribution, PC-3 PIP tumor", "setting": "[2]; 0.5 h postinjection", "result": "45 % ID/g and 44.7 ± 0.62 % ID/g"}, {"measurement": "biodistribution, PC-3 flu tumor", "setting": "[2]; 0.5 h postinjection", "result": "4.91 ± 1.10", "unit": "% ID/g"}, {"measurement": "biodistribution, bladder", "setting": "[2]; 0.5 h postinjection", "result": "3.89 ± 0.40", "unit": "% ID/g"}, {"measurement": "biodistribution, blood", "setting": "[2]; 0.5 h postinjection", "result": "7.94 ± 0.99", "unit": "% ID/g"}, {"measurement": "biodistribution, bone", "setting": "[2]; 0.5 h postinjection", "result": "1.52 ± 0.19", "unit": "% ID/g"}, {"measurement": "biodistribution, fat", "setting": "[2]; 0.5 h postinjection", "result": "1.65 ± 0.67", "unit": "% ID/g"}, {"measurement": "biodistribution, heart", "setting": "[2]; 0.5 h postinjection", "result": "2.27 ± 0.32", "unit": "% ID/g"}, {"measurement": "biodistribution, kidney", "setting": "[2]; 0.5 h postinjection", "result": "94.4 ± 8.22", "unit": "% ID/g"}, {"measurement": "biodistribution, large intestine", "setting": "[2]; 0.5 h postinjection", "result": "1.83 ± 0.16", "unit": "% ID/g"}, {"measurement": "biodistribution, liver", "setting": "[2]; 0.5 h postinjection", "result": "16.6 ± 1.61", "unit": "% ID/g"}, {"measurement": "biodistribution, lung", "setting": "[2]; 0.5 h postinjection", "result": "5.13 ± 0.29", "unit": "% ID/g"}, {"measurement": "biodistribution, muscle", "setting": "[2]; 0.5 h postinjection", "result": "0.96 ± 0.21", "unit": "% ID/g"}, {"measurement": "biodistribution, pancreas", "setting": "[2]; 0.5 h postinjection", "result": "1.78 ± 0.15", "unit": "% ID/g"}, {"measurement": "biodistribution, small intestine", "setting": "[2]; 0.5 h postinjection", "result": "1.37 ± 0.06", "unit": "% ID/g"}, {"measurement": "biodistribution, spleen", "setting": "[2]; 0.5 h postinjection", "result": "14.6 ± 4.41", "unit": "% ID/g"}, {"measurement": "biodistribution, stomach", "setting": "[2]; 0.5 h postinjection", "result": "1.80 ± 0.08", "unit": "% ID/g"}, {"measurement": "PIP:blood ratio", "setting": "[2]; 1 h postinjection", "result": "20 and 19.7"}, {"measurement": "PIP:flu ratio", "setting": "[2]; 1 h postinjection", "result": 25.4}, {"measurement": "PIP:kidney ratio", "setting": "[2]; 1 h postinjection", "result": 0.5}, {"measurement": "PIP:muscle ratio", "setting": "[2]; 1 h postinjection", "result": "100 and 100.2"}, {"measurement": "biodistribution, PC-3 PIP tumor", "setting": "[2]; 1 h postinjection", "result": "57.1 ± 19.55", "unit": "% ID/g"}, {"measurement": "biodistribution, PC-3 flu tumor", "setting": "[2]; 1 h postinjection", "result": "2.25 ± 1.62", "unit": "% ID/g"}, {"measurement": "biodistribution, bladder", "setting": "[2]; 1 h postinjection", "result": "2.19 ± 0.22", "unit": "% ID/g"}, {"measurement": "biodistribution, blood", "setting": "[2]; 1 h postinjection", "result": "2.90 ± 1.98", "unit": "% ID/g"}, {"measurement": "biodistribution, bone", "setting": "[2]; 1 h postinjection", "result": "0.78 ± 0.14", "unit": "% ID/g"}, {"measurement": "biodistribution, fat", "setting": "[2]; 1 h postinjection", "result": "0.88 ± 0.68", "unit": "% ID/g"}, {"measurement": "biodistribution, heart", "setting": "[2]; 1 h postinjection", "result": "1.23 ± 0.22", "unit": "% ID/g"}, {"measurement": "biodistribution, kidney", "setting": "[2]; 1 h postinjection", "result": "122 ± 21.9", "unit": "% ID/g"}, {"measurement": "biodistribution, large intestine", "setting": "[2]; 1 h postinjection", "result": "0.78 ± 0.13", "unit": "% ID/g"}, {"measurement": "biodistribution, liver", "setting": "[2]; 1 h postinjection", "result": "15.5 ± 2.00", "unit": "% ID/g"}, {"measurement": "biodistribution, lung", "setting": "[2]; 1 h postinjection", "result": "3.31 ± 0.41", "unit": "% ID/g"}, {"measurement": "biodistribution, muscle", "setting": "[2]; 1 h postinjection", "result": "0.57 ± 0.06", "unit": "% ID/g"}, {"measurement": "biodistribution, pancreas", "setting": "[2]; 1 h postinjection", "result": "1.23 ± 0.29", "unit": "% ID/g"}, {"measurement": "biodistribution, small intestine", "setting": "[2]; 1 h postinjection", "result": "1.83 ± 1.12", "unit": "% ID/g"}, {"measurement": "biodistribution, spleen", "setting": "[2]; 1 h postinjection", "result": "7.81 ± 4.22", "unit": "% ID/g"}, {"measurement": "biodistribution, stomach", "setting": "[2]; 1 h postinjection", "result": "0.99 ± 0.17", "unit": "% ID/g"}, {"measurement": "PIP:blood ratio", "setting": "[2]; 2 h postinjection", "result": 66}, {"measurement": "PIP:flu ratio", "setting": "[2]; 2 h postinjection", "result": 71.1}, {"measurement": "PIP:kidney ratio", "setting": "[2]; 2 h postinjection", "result": 0.7}, {"measurement": "PIP:muscle ratio", "setting": "[2]; 2 h postinjection", "result": "250 and 250.5"}, {"measurement": "biodistribution, PC-3 PIP tumor", "setting": "[2]; 2 h postinjection", "result": "85.2 ± 5.44", "unit": "% ID/g"}, {"measurement": "biodistribution, PC-3 flu tumor", "setting": "[2]; 2 h postinjection", "result": "1.20 ± 0.31", "unit": "% ID/g"}, {"measurement": "biodistribution, bladder", "setting": "[2]; 2 h postinjection", "result": "7.48 ± 0.68", "unit": "% ID/g"}, {"measurement": "biodistribution, blood", "setting": "[2]; 2 h postinjection", "result": "1.29 ± 0.87", "unit": "% ID/g"}, {"measurement": "biodistribution, bone", "setting": "[2]; 2 h postinjection", "result": "0.36 ± 0.02", "unit": "% ID/g"}, {"measurement": "biodistribution, fat", "setting": "[2]; 2 h postinjection", "result": "1.12 ± 0.43", "unit": "% ID/g"}, {"measurement": "biodistribution, heart", "setting": "[2]; 2 h postinjection", "result": "0.57 ± 0.09", "unit": "% ID/g"}, {"measurement": "biodistribution, kidney", "setting": "[2]; 2 h postinjection", "result": "115 ± 13.2", "unit": "% ID/g"}, {"measurement": "biodistribution, large intestine", "setting": "[2]; 2 h postinjection", "result": "0.55 ± 0.01", "unit": "% ID/g"}, {"measurement": "biodistribution, liver", "setting": "[2]; 2 h postinjection", "result": "8.99 ± 0.55", "unit": "% ID/g"}, {"measurement": "biodistribution, lung", "setting": "[2]; 2 h postinjection", "result": "1.91 ± 0.29", "unit": "% ID/g"}, {"measurement": "biodistribution, muscle", "setting": "[2]; 2 h postinjection", "result": "0.34 ± 0.07", "unit": "% ID/g"}, {"measurement": "biodistribution, pancreas", "setting": "[2]; 2 h postinjection", "result": "0.92 ± 0.40", "unit": "% ID/g"}, {"measurement": "biodistribution, small intestine", "setting": "[2]; 2 h postinjection", "result": "1.19 ± 0.61", "unit": "% ID/g"}, {"measurement": "biodistribution, spleen", "setting": "[2]; 2 h postinjection", "result": "6.78 ± 1.25", "unit": "% ID/g"}, {"measurement": "biodistribution, stomach", "setting": "[2]; 2 h postinjection", "result": "0.51 ± 0.07", "unit": "% ID/g"}, {"measurement": "PIP:blood ratio", "setting": "[2]; 4 h postinjection", "result": "156 and 155.8"}, {"measurement": "PIP:flu ratio", "setting": "[2]; 4 h postinjection", "result": 231.1}, {"measurement": "PIP:kidney ratio", "setting": "[2]; 4 h postinjection", "result": 1.3}, {"measurement": "PIP:muscle ratio", "setting": "[2]; 4 h postinjection", "result": 743}, {"measurement": "biodistribution, PC-3 PIP tumor", "setting": "[2]; 4 h postinjection", "result": "97 % ID/g and 96.6 ± 18.7 % ID/g"}, {"measurement": "biodistribution, PC-3 flu tumor", "setting": "[2]; 4 h postinjection", "result": "0.42 ± 0.07", "unit": "% ID/g"}, {"measurement": "biodistribution, bladder", "setting": "[2]; 4 h postinjection", "result": "2.03 ± 1.09", "unit": "% ID/g"}, {"measurement": "biodistribution, blood", "setting": "[2]; 4 h postinjection", "result": "0.62 ± 0.10", "unit": "% ID/g"}, {"measurement": "biodistribution, bone", "setting": "[2]; 4 h postinjection", "result": "0.18 ± 0.04", "unit": "% ID/g"}, {"measurement": "biodistribution, fat", "setting": "[2]; 4 h postinjection", "result": "0.58 ± 0.17", "unit": "% ID/g"}, {"measurement": "biodistribution, heart", "setting": "[2]; 4 h postinjection", "result": "0.24 ± 0.04", "unit": "% ID/g"}, {"measurement": "biodistribution, kidney", "setting": "[2]; 4 h postinjection", "result": "74.4 ± 13.8", "unit": "% ID/g"}, {"measurement": "biodistribution, large intestine", "setting": "[2]; 4 h postinjection", "result": "0.96 ± 0.25", "unit": "% ID/g"}, {"measurement": "biodistribution, liver", "setting": "[2]; 4 h postinjection", "result": "2.77 ± 0.49", "unit": "% ID/g"}, {"measurement": "biodistribution, lung", "setting": "[2]; 4 h postinjection", "result": "0.94 ± 0.06", "unit": "% ID/g"}, {"measurement": "biodistribution, muscle", "setting": "[2]; 4 h postinjection", "result": "0.13 ± 0.04", "unit": "% ID/g"}, {"measurement": "biodistribution, pancreas", "setting": "[2]; 4 h postinjection", "result": "0.26 ± 0.06", "unit": "% ID/g"}, {"measurement": "biodistribution, small intestine", "setting": "[2]; 4 h postinjection", "result": "0.24 ± 0.09", "unit": "% ID/g"}, {"measurement": "biodistribution, spleen", "setting": "[2]; 4 h postinjection", "result": "3.49 ± 0.86", "unit": "% ID/g"}, {"measurement": "biodistribution, stomach", "setting": "[2]; 4 h postinjection", "result": "0.19 ± 0.03", "unit": "% ID/g"}, {"measurement": "tumor/kidney ratio", "setting": "[2]; at 2–4 h", "result": "approximately 1"}]}
{"compound": "O=C(O)CC[C@H](NC(=O)N[C@@H](CCCCNC(=O)c1ccc(F)cc1)C(=O)O)C(=O)O", "note": "[compound 9]", "values": [{"measurement": "Ki", "setting": "PSMA", "result": 0.25, "unit": "nM"}]}
